Source: patent US7217704B2, “LPA receptor agonists and antagonists and methods of use” (The University of Tennessee Research Foundation, priority 2003, dated 2007)
Read-outs that look alike come from different tables or passages of the source.

Assays:
LPA3 [1] = biological target: T1, LPA3 (Homo sapiens, UniProt Q9UBY5); conditions: GTPγS loading assay, HEK293T; read-out: reported Ki at LPA3; cited from earlier work
T1 construct: expressed in transfected cells
T1 sequence (Q9UBY5 1-353): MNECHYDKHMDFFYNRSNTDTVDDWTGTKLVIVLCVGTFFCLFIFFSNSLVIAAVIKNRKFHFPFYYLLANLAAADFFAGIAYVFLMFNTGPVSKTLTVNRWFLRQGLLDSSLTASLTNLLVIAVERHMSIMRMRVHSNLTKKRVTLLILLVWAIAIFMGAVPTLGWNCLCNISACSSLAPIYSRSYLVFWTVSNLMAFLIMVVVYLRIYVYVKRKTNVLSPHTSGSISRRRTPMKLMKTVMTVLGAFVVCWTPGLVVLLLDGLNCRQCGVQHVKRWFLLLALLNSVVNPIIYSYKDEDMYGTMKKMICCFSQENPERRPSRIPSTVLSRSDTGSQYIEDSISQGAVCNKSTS

PPARγ = biological target: T2, PPARγ (Homo sapiens, UniProt P37231); experiment: PPARγ activation in CV1 cells, PPRE-Acox-Rluc reporter gene assay; conditions: 10 μM test compound, 20 h
T2 sequence (P37231 1-505): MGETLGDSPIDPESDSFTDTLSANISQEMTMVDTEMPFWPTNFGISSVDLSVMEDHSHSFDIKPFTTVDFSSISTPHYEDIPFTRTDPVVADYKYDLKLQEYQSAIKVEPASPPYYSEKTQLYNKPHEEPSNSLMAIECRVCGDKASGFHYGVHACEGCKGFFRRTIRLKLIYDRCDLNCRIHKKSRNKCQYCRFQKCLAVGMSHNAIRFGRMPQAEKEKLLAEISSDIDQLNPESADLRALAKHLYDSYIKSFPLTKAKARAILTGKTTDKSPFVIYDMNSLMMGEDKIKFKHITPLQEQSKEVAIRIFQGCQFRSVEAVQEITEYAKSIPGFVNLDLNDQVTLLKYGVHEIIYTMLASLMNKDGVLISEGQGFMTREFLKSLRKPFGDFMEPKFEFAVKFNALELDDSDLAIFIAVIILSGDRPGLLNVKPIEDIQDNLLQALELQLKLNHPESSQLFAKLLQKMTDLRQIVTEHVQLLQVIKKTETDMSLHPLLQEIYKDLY

LPA2 [2] = biological target: T3, LPA2 (Homo sapiens, UniProt Q9HBW0); conditions: GTPγS loading assay, HEK293T; read-out: reported Ki at LPA2; cited from earlier work
T3 construct: expressed in transfected cells

LPA1 [3] = biological target: T4, LPA1 (Homo sapiens, UniProt Q92633); experiment: Ca2+ transients (agonism / inhibition of LPA response) in RH7777 cells stably expressing LPA1; format: cell-based; conditions: RH7777 cells expressing LPA1; for EC50: induction of Ca2+ transients, read-out: LPA1 EC50; for IC50: read-out: LPA1 IC50
T4 construct: expressed in transfected cells
Protocol: (§1) The culture medium (DMEM containing 10% FBS) was then replaced with modified Krebs solution (120 mM NaCl, 5 mM KCl, 0.62 mM MgSO4, 1.8 mM CaCl2, 10 mM HEPES, 6 mM glucose, pH 7.4) and the cells were serum starved for 6–8 hours (12 h for PC-3 cells). Cells were loaded with Fura-2 AM for 35 minutes in modified Krebs medium. The Fura-2 was removed before loading the plate in the FlexStation instrument by replacing the medium once again with 100 μl modified Krebs medium/well. Plates were incubated for 4 minutes in the instrument to allow for warming to 37° C. Changes in intracellular Ca^2+ concentration were monitored by measuring the ratio of emitted light intensity at 520 nm in response to excitation by 340 nm and 380 nm wavelength lights, respectively. Each well was monitored for 80–120 seconds. […] Time courses were recorded using the SoftMax Pro software (Molecular Devices, Sunnyvale, Calif.). Ca^2+ transients were quantified automatically by calculating the difference between maximum and baseline ratio values for each well.
(§2) Each FAP analog was tested for the ability to induce Ca^2+ transients in RH7777 cells transfected with LPA1-3 receptors (agonism), as well as the ability to inhibit LPAinduced Ca^2+ transients in the same cells (antagonism) (Table 3).

LPA1 [4] = biological target: T4, LPA1; conditions: GTPγS loading assay, HEK293T; read-out: reported Ki at LPA1; cited from earlier work
LPA2 [5] = biological target: T3, LPA2; experiment: Ca2+ transients (agonism / inhibition of LPA response) in RH7777 cells stably expressing LPA2; format: cell-based; conditions: RH7777 cells expressing LPA2; for EC50: induction of Ca2+ transients, read-out: LPA2 EC50; for IC50: inhibition of LPA-induced Ca2+ transients, read-out: LPA2 IC50
Protocol: as §1, §2

PC-3 cells = experiment: Ca2+ transients in PC-3 cells endogenously expressing LPA1-3; format: cell-based, human; conditions: inhibition of LPA-induced Ca2+ transients, PC-3 cells
Protocol: as §1
We tested the FAP analogs in PC-3 cells, which unlike the transfected RH7777 cells endogenously express LPA1-3 receptors.

LPA3 [6] = biological target: T1, LPA3; experiment: Ca2+ transients (agonism / inhibition of LPA response) in RH7777 cells stably expressing LPA3; format: cell-based; conditions: RH7777 cells expressing LPA3; for EC50: induction of Ca2+ transients, read-out: LPA3 EC50; for Ki / IC50: inhibition of LPA-induced Ca2+ transients; for Ki: read-out: LPA3 (Ki); for IC50: read-out: LPA3 IC50
Protocol: as §1, §2

LPA1 [7] = biological target: T4, LPA1; conditions: original assay, literature; read-out: reported Ki at LPA1; cited from earlier work
LPA3 [8] = biological target: T1, LPA3; conditions: original assay, literature; read-out: reported Ki at LPA3; cited from earlier work
LPA2 [9] = biological target: T3, LPA2; conditions: previously reported in Virag et al. (2003), cited from earlier work
LPA1 [10] = biological target: T4, LPA1; conditions: RH7777 cells expressing LPA1; previously reported in Virag et al. (2003); cited from earlier work
LPA3 [11] = biological target: T1, LPA3; conditions: RH7777 cells expressing LPA3; previously reported in Virag et al. (2003); cited from earlier work
IEC-6 cells = experiment: Camptothecin-induced DNA fragmentation (apoptosis) in IEC-6 cells, ELISA; format: cell-based; conditions: Camptothecin 20 μM, LPA and FAP12 at 10 μM
Protocol: The experimental procedure utilized was substantially the same as that reported in Deng et al. (2002) and Deng et al., (2003).
Basically, IEC-6 cells were grown in DMEM medium supplemented with 5% fetal bovine serum, insulin (10 μg/ml), gentamycin sulfate (50 μg/ml), and incubated at 37° C. in a humidified 90% air–10% CO2 atmosphere. Medium was changed every other day. Sub-confluent cells were washed twice and replaced by DMEM without serum the night before experiments.
Damage and IEC-6 cell apoptosis was induced via either γ-irradiation or chemotherapy. 20 Gy single dose of [^137Cs] source γ-irradiation was used in all experiments. […] In some experiments, LPA was added at different times before or after irradiation. Treatment with 20 μM camptothecin of IEC-6 cells induces DNA fragmentation as measured by the ELISA assay at 16 h after treatment. DNA fragmentation was quantified using the Cell Death Detection ELISA kit from Boehringer (Indianapolis, Ind.) according to the instructions of the manufacturer. Samples were run in triplicate. A duplicate of the sample was used to quantify protein concentration using the BCA kit from Pierce (Rockford, Ill.). DNA fragmentation was expressed as absorbance units per μg protein per minute.

[12] = inhibition of LPA-induced Ca2+ transients

T3 sequence (Q9HBW0 whole entry): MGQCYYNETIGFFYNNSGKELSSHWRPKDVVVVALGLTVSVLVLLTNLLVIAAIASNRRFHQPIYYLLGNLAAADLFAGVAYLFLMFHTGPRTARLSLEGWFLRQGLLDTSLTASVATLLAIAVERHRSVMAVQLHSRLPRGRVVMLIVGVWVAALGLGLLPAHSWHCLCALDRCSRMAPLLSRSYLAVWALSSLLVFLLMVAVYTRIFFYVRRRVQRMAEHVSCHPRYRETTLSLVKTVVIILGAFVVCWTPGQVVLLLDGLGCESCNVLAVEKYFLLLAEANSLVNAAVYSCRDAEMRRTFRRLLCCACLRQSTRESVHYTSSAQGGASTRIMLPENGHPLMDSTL
T4 sequence (Q92633 whole entry): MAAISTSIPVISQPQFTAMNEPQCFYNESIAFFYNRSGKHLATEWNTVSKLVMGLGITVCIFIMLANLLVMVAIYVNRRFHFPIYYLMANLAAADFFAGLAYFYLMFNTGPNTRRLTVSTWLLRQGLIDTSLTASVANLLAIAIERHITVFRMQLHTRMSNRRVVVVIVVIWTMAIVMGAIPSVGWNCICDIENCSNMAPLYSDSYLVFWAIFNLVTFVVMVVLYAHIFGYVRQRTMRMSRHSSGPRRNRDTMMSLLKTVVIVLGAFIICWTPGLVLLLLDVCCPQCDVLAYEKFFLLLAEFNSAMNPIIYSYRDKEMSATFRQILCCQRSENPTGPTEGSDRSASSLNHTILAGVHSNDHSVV

| PPARγ activation (PPRE-Acox-Rluc reporter) in words (PPARγ) | EC50 (LPA1 [3]) [µM] | IC50 (LPA1 [3]; [12]) [µM] | EC50 (LPA2 [5]) [µM] | IC50 (LPA2 [5]) [µM] | EC50 (LPA3 [6]) [µM] | Ki (LPA3 [6]) [µM] | IC50 (LPA3 [6]) [µM] | SMILES | IC50 (LPA2 [9]; RH7777 cells expressing LPA2) [µM] | EC50 (LPA1 [10]) [µM] | EC50 (LPA3 [11]) [µM] | also measured |
| --- | --- | --- | --- | --- | --- | --- | --- | --- | --- | --- | --- | --- |
| can activate PPRE-Acox-Rluc reporter | > 30 | 0.762 | > 30 | > 30 | > 30 | 0.148 | 0.301 | Cc1noc(-c2ccc(CSCCC(=O)O)cc2)c1NC(=O)OC(C)c1ccccc1Cl (stereo not shown) [Ki16425, reference compound] | – | – | – | Ki (LPA3 [1]): 0.36 µM; Ki (LPA2 [2]): 5.6 µM; Ki (LPA1 [3]; [12]): 0.425 µM; Ki (LPA1 [4]): 0.25 µM; Ki (PC-3 cells): 1.74 µM; IC50 (PC-3 cells; read-out: PC-3 IC50): 3.38 µM |
| can activate PPRE-Acox-Rluc reporter | > 30 | 5.5 | > 30 | > 30 | > 30 | 0.202 | 0.454 | CCCCCCCC(=O)OC[C@H](COP(=O)(O)OP(=O)(O)O)OC(=O)CCCCCCC [DGPP, reference compound] | – | – | – | Ki (LPA1 [3]): 4.3 µM; Ki (LPA1 [7]): 6.6 µM; Ki (LPA3 [8]): 0.106 µM |
| – | – | – | – | – | – | – | – | CCCCCCCCCCOP(=O)(O)O [Compound 2a] | > 30 | > 30 | > 30 | IC50 (LPA1 [10]): > 30 µM |
| – | – | – | – | – | – | – | – | CCCCCCCCCCCCOP(=O)(O)O [Compound 2b] | > 30 | > 30 | > 30 | inhibition of Camptothecin-induced DNA fragmentation in words (IEC-6 cells): inhibited; LPA2 (Emax) (LPA2 [9]; relative to LPA 18:1): 50%; IC50 (LPA3 [11]): 0.128 µM; Ki (LPA3 [11]): 0.061 µM |
| – | – | – | – | – | – | – | – | CCCCCCCCCCCCCCOP(=O)(O)O [Compound 2c] | > 30 | > 30 | > 30 | EC50 (LPA2 [9]; RH7777 cells expressing LPA2): > 30 µM |
